Assay [1] deals with rat TAAR1 (Rattus norvegicus (Rat), UniProt Q923Y9). In words: Radioligand binding assay on rat TAAR1. To be noted: rat TAAR1, membranes of stably transfected HEK-293 cells; second value of mouse/rat pair. The procedure: (§1) Construction of TAAR Expression Plasmids and Stably Transfected Cell Lines
(§2) For the construction of expression plasmids the coding sequences of human, rat and mouse TAAR 1 were amplified from genomic DNA essentially as described by Lindemann et al.. The Expand High Fidelity PCR System (Roche Diagnostics) was used with 1.5 mM Mg^2+ and purified PCR products were cloned into pCR2.1-TOPO cloning vector (Invitrogen) following the instructions of the manufacturer. PCR products were subcloned into the pIRESneo2 vector (BD Clontech, Palo Alto, Calif.), and expression vectors were sequence verified before introduction in cell lines.
(§3) HEK293 cells (ATCC # CRL-1573) were cultured essentially as described by Lindemann et al. (2005). For the generation of stably transfected cell lines HEK293 cells were transfected with the pIRESneo2 expression plasmids containing the TAAR coding sequences (described above) with Lipofectamine 2000 (Invitrogen) according to the instructions of the manufacturer, and 24 hrs post transfection the culture medium was supplemented with 1 mg/ml G418 (Sigma, Buchs, Switzerland). After a culture period of about 10 d clones were isolated, expanded and tested for responsiveness to trace amines (all compounds purchased from Sigma) with the cAMP Biotrak Enzyme immunoassay (EIA) System (Amersham) following the non-acetylation EIA procedure provided by the manufacturer.
Radioligand Binding Assay on Rat TAAR1
(§4) Membrane Preparation and Radioligand Binding.
(§5) HEK-293 cells stably expressing rat TAAR1 were maintained at 37° C. and 5% CO2 in DMEM high glucose medium, containing fetal calf serum (10%, heat inactivated for 30 min at 56° C.), penicillin/streptomycin (1%), and 375 μg/ml geneticin (Gibco). Cells were released from culture flasks using trypsin/EDTA, harvested, washed twice with ice-cold PBS (without Ca^2+ and Mg^2+), pelleted at 1′000 rpm for 5 min at 4° C., frozen and stored at −80° C. Frozen pellets were suspended in 20 ml HEPES-NaOH (20 mM, pH 7.4) containing 10 mM EDTA and homogenized with a Polytron (PT 6000, Kinematica) at 14,000 rpm for 20 s. The homogenate was centrifuged at 48,000×g for 30 min at 4° C. Subsequently, the supernatant was removed and discarded, and the pellet resuspended in 20 ml HEPES-NaOH (20 mM, pH 7.4) containing 0.1 mM EDTA using the Polytron (20 s at 14,000 rpm). This procedure was repeated and the final pellet resuspended in HEPES-NaOH containing 0.1 mM EDTA and homogenized using the Polytron. Typically, aliquots of 2 ml membrane portions were stored at −80° C. With each new membrane batch the dissociation constant (Kd) was determined via a saturation curve. […] Nonspecific binding was defined as the amount of [H]—(S)-4-[(ethyl-phenyl-amino)-methyl]-4,5-dihydro-oxazol-2-ylamine bound in the presence of 10 μM unlabeled ligand. All compounds were tested at a broad range of concentrations (10 pM to 10 μM) in duplicates. […] The 96 deep well plates were incubated for 1 hr at 4° C. Incubations were terminated by rapid filtration through Unifilter-96 plates (Packard Instrument Company) and glass filters GF/C (Perkin Elmer) presoaked for 1 hr in polyethylenimine (0.3%) and washed 3 times with 1 ml of cold binding buffer. After addition of 45 μl of Microscint 40 (PerkinElmer) the Unifilter-96 plate was sealed and after 1 hr the radioactivity counted using a TopCount Microplate Scintillation Counter (Packard Instrument Company).

In assay [2] the target is mouse TAAR1 (Mus musculus (Mouse), UniProt Q923Y8). In words: Radioligand binding assay on mouse TAAR1. As to conditions: mouse TAAR1, membranes of stably transfected HEK-293 cells; first value of mouse/rat pair. The protocol: as §1, §2, §3
Radioligand Binding Assay on Mouse TAAR1
as §4
as §5, with “expressing mouse” for “expressing rat”, “of ^3[H]—(S)-4-[(ethyl-phenyl-amino)-methyl]-4,5-dihydro-oxazol-2-ylamine” for “of [H]—(S)-4-[(ethyl-phenyl-amino)-methyl]-4,5-dihydro-oxazol-2-ylamine”

Sequence of mouse TAAR1 (Q923Y8 whole entry): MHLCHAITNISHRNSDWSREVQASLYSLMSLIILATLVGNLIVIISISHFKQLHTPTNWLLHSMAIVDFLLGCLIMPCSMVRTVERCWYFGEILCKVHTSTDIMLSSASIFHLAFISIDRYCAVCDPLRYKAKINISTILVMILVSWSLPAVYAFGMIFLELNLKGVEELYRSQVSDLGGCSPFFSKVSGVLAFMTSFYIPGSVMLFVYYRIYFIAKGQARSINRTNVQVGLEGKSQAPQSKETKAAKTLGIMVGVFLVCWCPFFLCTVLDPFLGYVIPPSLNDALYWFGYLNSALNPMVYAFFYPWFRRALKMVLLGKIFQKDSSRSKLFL
Sequence of rat TAAR1 (Q923Y9 whole entry): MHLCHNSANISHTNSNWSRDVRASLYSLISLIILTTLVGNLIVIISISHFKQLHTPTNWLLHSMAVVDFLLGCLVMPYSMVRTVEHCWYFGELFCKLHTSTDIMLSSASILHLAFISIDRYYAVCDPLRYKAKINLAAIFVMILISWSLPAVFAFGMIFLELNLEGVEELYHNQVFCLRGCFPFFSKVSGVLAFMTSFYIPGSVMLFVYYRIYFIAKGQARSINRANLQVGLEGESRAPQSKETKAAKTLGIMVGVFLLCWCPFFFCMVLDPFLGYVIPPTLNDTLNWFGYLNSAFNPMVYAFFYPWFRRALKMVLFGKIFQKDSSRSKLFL

Regarding `NC1CCc2cc(C(=O)Nc3ccc(C(F)(F)F)cc3)ccc2C1` (stereo not shown) [Example 34, 6-Amino-N-(4-(trifluoromethyl)phenyl)-5,6,7,8-tetrahydronaphthalene-2-carboxamide], the Ki in assay [1] came to 0.0039 µM; in assay [2], 0.0054 µM.
The like results for `NC1CCc2cc(C(=O)NCc3ccc(C(F)(F)F)cc3)ccc2C1` (stereo not shown) [Example 35, 6-Amino-N-(4-(trifluoromethyl)benzyl)-5,6,7,8-tetrahydronaphthalene-2-carboxamide] were, in that order, 0.035 µM and 0.0055 µM.
Consider `N[C@H]1CCc2cc(Nc3ccc(C(F)(F)F)cn3)ccc2C1` [Example 38, (S)—N6-(5-(Trifluoromethyl)pyridin-2-yl)-1,2,3,4-tetrahydronaphthalene-2,6-diamine], for which the Ki in assay [1] turned out to be 0.0021 µM; in assay [2], 0.0032 µM.
Take `N[C@H]1CCc2cc(NC(=O)c3cccnc3F)ccc2C1` [Example 39, (S)—N-(6-Amino-5,6,7,8-tetrahydronaphthalen-2-yl)-2-fluoronicotinamide]: the results for the Ki in assay [1] and in assay [2] were 0.14 µM and 0.476 µM, respectively.
The like results for `N[C@H]1CCc2cc(NC(=O)c3cnc(Cl)c(Cl)c3)ccc2C1` [Example 41, (S)—N-(6-Amino-5,6,7,8-tetrahydronaphthalen-2-yl)-5,6-dichloronicotinamide] were, in that order, 0.0031 µM and 0.0031 µM.
On to `N[C@H]1CCc2cc(NC(=O)c3ccc(F)c(F)c3)ccc2C1` [Example 42, (S)—N-(6-Amino-5,6,7,8-tetrahydronaphthalen-2-yl)-3,4-difluorobenzamide], for which the Ki in assay [1] is 0.0019 µM; in assay [2] it was 0.0035 µM.
For `N[C@H]1CCc2cc(NC(=O)c3ccc4ccccc4c3)ccc2C1` [Example 43, (S)—N-(6-Amino-5,6,7,8-tetrahydronaphthalen-2-yl)-2-naphthamide], the Ki came out at 0.001 µM in assay [1] and 0.0006 µM in assay [2].
The like results for `N[C@H]1CCc2cc(NC(=O)c3ccnc(C(F)(F)F)c3)ccc2C1` [Example 45, (S)—N-(6-Amino-5,6,7,8-tetrahydronaphthalen-2-yl)-2-(trifluoromethyl)isonicotinamide] were, in that order, 0.0063 µM and 0.0117 µM.
Take `N[C@H]1CCc2cc(NC(=O)c3cc(Cl)nc(Cl)c3)ccc2C1` [Example 46, (S)—N-(6-Amino-5,6,7,8-tetrahydronaphthalen-2-yl)-2,6-dichloroisonicotinamide]: the inhibitory constant (Ki) in assay [1] was determined as 0.0022 µM; in assay [2], 0.0042 µM.
For the compound `CCc1n[nH]c(C(=O)Nc2ccc3c(c2)CC[C@H](N)C3)c1C` [Example 51, (S)—N-(6-Amino-5,6,7,8-tetrahydronaphthalen-2-yl)-3-ethyl-4-methyl-1H-pyrazole-5-carboxamide], the Ki in assay [1] came out at 0.0046 µM; in assay [2], 0.0062 µM.
For the compound `CCn1nc(C(=O)Nc2ccc3c(c2)CC[C@H](N)C3)c(Br)c1OCC(F)F` [Example 52, (S)—N-(6-Amino-5,6,7,8-tetrahydronaphthalen-2-yl)-4-bromo-5-(2,2-difluoroethoxy)-1-ethyl-1H-pyrazole-3-carboxamide], the Ki amounted to 0.0016 µM in assay [1] and 0.0128 µM in assay [2].
With `CCc1ccc(Nc2ccc3c(c2)CC[C@H](N)C3)cc1` [Example 53, (S)—N6-(4-Ethylphenyl)-1,2,3,4-tetrahydronaphthalene-2,6-diamine], the values for the Ki in assay [1] and in assay [2] were 0.0083 µM and 0.006 µM, respectively.
The like results for `NC1CCc2cc(C(=O)Nc3cccc(OC(F)(F)F)c3)ccc2C1` (stereo not shown) [Example 55, 6-Amino-N-(3-(trifluoromethoxy)phenyl)-5,6,7,8-tetrahydronaphthalene-2-carboxamide] were, in that order, 0.0017 µM and 0.003 µM.
Take `CCc1ccc(NC(=O)c2ccc3c(c2)CCC(N)C3)cc1` (stereo not shown) [Example 56, 6-Amino-N-(4-ethylphenyl)-5,6,7,8-tetrahydronaphthalene-2-carboxamide]: the inhibitory constant (Ki) in assay [1] was 0.0456 µM; in assay [2] it was 0.0155 µM.
With `NC1CCc2cc(C(=O)Nc3ccc(Cl)cc3)ccc2C1` (stereo not shown) [Example 57, 6-Amino-N-(4-chlorophenyl)-5,6,7,8-tetrahydronaphthalene-2-carboxamide], the Ki in assay [1] was determined as 0.0142 µM; in assay [2], 0.0116 µM.
`NC1CCc2cc(C(=O)Nc3ccc(F)cc3)ccc2C1` (stereo not shown) [Example 58, 6-Amino-N-(4-fluorophenyl)-5,6,7,8-tetrahydronaphthalene-2-carboxamide]: the Ki was 0.0964 µM in assay [1] and 0.0569 µM in assay [2].
With `NC1CCc2cc(C(=O)Nc3cccc(Cl)c3)ccc2C1` (stereo not shown) [Example 59, 6-Amino-N-(3-chlorophenyl)-5,6,7,8-tetrahydronaphthalene-2-carboxamide], the Ki in assay [1] was determined as 0.0109 µM; in assay [2], 0.0018 µM.
As for `NC1CCc2cc(C(=O)Nc3ccc(C4CC4)cc3)ccc2C1` (stereo not shown) [Example 60, 6-Amino-N-(4-cyclopropylphenyl)-5,6,7,8-tetrahydronaphthalene-2-carboxamide], the results for the Ki in assay [1] and in assay [2] were 0.0213 µM and 0.0096 µM, respectively.
The like results for `N[C@H]1CCc2cc(Nc3cccc(OC(F)(F)F)c3)ccc2C1` [Example 61, (S)—N6-(3-(Trifluoromethoxy)phenyl)-1,2,3,4-tetrahydronaphthalene-2,6-diamine] were, in that order, 0.0049 µM and 0.0071 µM.
As to `N[C@H]1CCc2cc(NC(=O)NCc3ccc(Cl)cn3)ccc2C1` [Example 62, (S)-1-(6-Amino-5,6,7,8-tetrahydronaphthalen-2-yl)-3-((5-chloropyridin-2-yl)methyl)urea], the Ki is 0.095 µM in assay [1] and 0.0355 µM in assay [2].
Regarding `N[C@H]1CCc2cc(NC(=O)NCc3cccc(OC(F)(F)F)c3)ccc2C1` [Example 63, (S)-1-(6-Amino-5,6,7,8-tetrahydronaphthalen-2-yl)-3-(3-(trifluoromethoxy)benzyl)urea], the inhibition constant (Ki) was 0.0039 µM in assay [1] and 0.002 µM in assay [2].
With `CCc1ccc(NC(=O)Nc2ccc3c(c2)CC[C@H](N)C3)cc1` [Example 64, (S)-1-(6-Amino-5,6,7,8-tetrahydronaphthalen-2-yl)-3-(4-ethylphenyl)urea], the values for the inhibitory constant (Ki) in assay [1] and in assay [2] were 0.0026 µM and 0.003 µM, respectively.
As for `N[C@H]1CCc2cc(NC(=O)Nc3ccc(OC(F)(F)F)cc3)ccc2C1` [Example 65, (S)-1-(6-Amino-5,6,7,8-tetrahydronaphthalen-2-yl)-3-(4-(trifluoromethoxy)phenyl)urea], the Ki was determined as 0.0003 µM in assay [1] and 0.0012 µM in assay [2].

As a reminder, the Ki is the dissociation constant of the complex between target and ligand, obtained from inhibition or displacement. A high value points to lower affinity.

Values taken from patent publication US9957261B2 (Hoffmann-La Roche Inc., priority 2014, dated 2018).
